# Laboratory results reported in ChEMBL document CHEMBL5303573, “Mapping human microbiome drug metabolism by gut bacteria and their genes” (Nature, 2019).
# Details: bacteroides thetaiotaomicron, 12 h, 2 µM
# Description: The drug is tested on Bacteroides thetaiotaomicron strain: 7330 for biotransformation. The drug concentrations were measured before and after a 12-h incubation by liquid-chromatography-coupled mass spectrometry (LC–MS)
row,SMILES,Bacterial Biotransformation
1,CCOc1ccccc1OCCN[C@H](C)Cc1ccc(OC)c(S(N)(=O)=O)c1.Cl [TAMSULOSIN HYDROCHLORIDE],Compound NOT metabolized
2,O=c1[nH]c2ccccc2n1C1CCN(CCCC(c2ccc(F)cc2)c2ccc(F)cc2)CC1 [PIMOZIDE],Compound NOT metabolized
3,COc1cc(C(=O)NCc2ccc(OCCN(C)C)cc2)cc(OC)c1OC [TRIMETHOBENZAMIDE],Compound NOT metabolized

# Assay: The drug is tested on Parabacteroides merdae strain: ATCC43184 for biotransformation. The drug concentrations were measured before and after a 12-h incubation by liquid-chromatography-coupled mass spectrometry (LC–MS)
# Details: 2 µM
row,SMILES,Bacterial Biotransformation
1,CCOc1ccccc1OCCN[C@H](C)Cc1ccc(OC)c(S(N)(=O)=O)c1.Cl [TAMSULOSIN HYDROCHLORIDE],Compound NOT metabolized
2,O=c1[nH]c2ccccc2n1C1CCN(CCCC(c2ccc(F)cc2)c2ccc(F)cc2)CC1 [PIMOZIDE],Compound NOT metabolized
3,COc1cc(C(=O)NCc2ccc(OCCN(C)C)cc2)cc(OC)c1OC [TRIMETHOBENZAMIDE],Compound NOT metabolized

# Details: bacteroides intestinalis, 12 h, 2 µM
# Description: The drug is tested on Bacteroides intestinalis strain: DSM17393 for biotransformation. The drug concentrations were measured before and after a 12-h incubation by liquid-chromatography-coupled mass spectrometry (LC–MS)
row,SMILES,Bacterial Biotransformation
1,CCOc1ccccc1OCCN[C@H](C)Cc1ccc(OC)c(S(N)(=O)=O)c1.Cl [TAMSULOSIN HYDROCHLORIDE],Compound NOT metabolized
2,O=c1[nH]c2ccccc2n1C1CCN(CCCC(c2ccc(F)cc2)c2ccc(F)cc2)CC1 [PIMOZIDE],Compound NOT metabolized
3,COc1cc(C(=O)NCc2ccc(OCCN(C)C)cc2)cc(OC)c1OC [TRIMETHOBENZAMIDE],Compound NOT metabolized

# Assay: The drug is tested on Clostridium asparagiforme strain: DSM15981 for biotransformation. The drug concentrations were measured before and after a 12-h incubation by liquid-chromatography-coupled mass spectrometry (LC–MS)
# Type: ADME
# Design: dose 2 uM, timepoint 0 vs 12 hours
# Details: enterocloster asparagiformis, 2 µM
row,SMILES,Bacterial Biotransformation
1,CCOc1ccccc1OCCN[C@H](C)Cc1ccc(OC)c(S(N)(=O)=O)c1.Cl [TAMSULOSIN HYDROCHLORIDE],Compound NOT metabolized
2,O=c1[nH]c2ccccc2n1C1CCN(CCCC(c2ccc(F)cc2)c2ccc(F)cc2)CC1 [PIMOZIDE],Compound NOT metabolized
3,COc1cc(C(=O)NCc2ccc(OCCN(C)C)cc2)cc(OC)c1OC [TRIMETHOBENZAMIDE],Compound NOT metabolized

# Assay: The drug is tested on Edwardsiella tarda strain: ATCC23685 for biotransformation. The drug concentrations were measured before and after a 12-h incubation by liquid-chromatography-coupled mass spectrometry (LC–MS)
# Details: 2 µM
row,SMILES,Bacterial Biotransformation
1,CCOc1ccccc1OCCN[C@H](C)Cc1ccc(OC)c(S(N)(=O)=O)c1.Cl [TAMSULOSIN HYDROCHLORIDE],Compound NOT metabolized
2,O=c1[nH]c2ccccc2n1C1CCN(CCCC(c2ccc(F)cc2)c2ccc(F)cc2)CC1 [PIMOZIDE],Compound NOT metabolized
3,COc1cc(C(=O)NCc2ccc(OCCN(C)C)cc2)cc(OC)c1OC [TRIMETHOBENZAMIDE],Compound NOT metabolized

# Assay: The drug is tested on Bacteroides sp. WH2 strain: WH2 for biotransformation. The drug concentrations were measured before and after a 12-h incubation by liquid-chromatography-coupled mass spectrometry (LC–MS)
# Details: bacteroides sp. wh2, 12 h, 2 µM
row,SMILES,Bacterial Biotransformation
1,CCOc1ccccc1OCCN[C@H](C)Cc1ccc(OC)c(S(N)(=O)=O)c1.Cl [TAMSULOSIN HYDROCHLORIDE],Compound NOT metabolized
2,O=c1[nH]c2ccccc2n1C1CCN(CCCC(c2ccc(F)cc2)c2ccc(F)cc2)CC1 [PIMOZIDE],Compound NOT metabolized
3,COc1cc(C(=O)NCc2ccc(OCCN(C)C)cc2)cc(OC)c1OC [TRIMETHOBENZAMIDE],Compound NOT metabolized

# Details: bacteroides stercoris, 12 h, 2 µM
# Description: The drug is tested on Bacteroides stercoris strain: ATCC43183 for biotransformation. The drug concentrations were measured before and after a 12-h incubation by liquid-chromatography-coupled mass spectrometry (LC–MS)
row,SMILES,Bacterial Biotransformation
1,CCOc1ccccc1OCCN[C@H](C)Cc1ccc(OC)c(S(N)(=O)=O)c1.Cl [TAMSULOSIN HYDROCHLORIDE],Compound NOT metabolized
2,O=c1[nH]c2ccccc2n1C1CCN(CCCC(c2ccc(F)cc2)c2ccc(F)cc2)CC1 [PIMOZIDE],Compound NOT metabolized
3,COc1cc(C(=O)NCc2ccc(OCCN(C)C)cc2)cc(OC)c1OC [TRIMETHOBENZAMIDE],Compound NOT metabolized

# Assay: The drug is tested on Collinsella intestinalis strain: DSM13280 for biotransformation. The drug concentrations were measured before and after a 12-h incubation by liquid-chromatography-coupled mass spectrometry (LC–MS)
# Details: 2 µM
row,SMILES,Bacterial Biotransformation
1,CCOc1ccccc1OCCN[C@H](C)Cc1ccc(OC)c(S(N)(=O)=O)c1.Cl [TAMSULOSIN HYDROCHLORIDE],Compound NOT metabolized
2,O=c1[nH]c2ccccc2n1C1CCN(CCCC(c2ccc(F)cc2)c2ccc(F)cc2)CC1 [PIMOZIDE],Compound NOT metabolized
3,COc1cc(C(=O)NCc2ccc(OCCN(C)C)cc2)cc(OC)c1OC [TRIMETHOBENZAMIDE],Compound NOT metabolized

# Assay: The drug is tested on Providencia stuartii strain: ATCC25827 for biotransformation. The drug concentrations were measured before and after a 12-h incubation by liquid-chromatography-coupled mass spectrometry (LC–MS)
# Details: 2 µM
row,SMILES,Bacterial Biotransformation
1,CCOc1ccccc1OCCN[C@H](C)Cc1ccc(OC)c(S(N)(=O)=O)c1.Cl [TAMSULOSIN HYDROCHLORIDE],Compound NOT metabolized
2,O=c1[nH]c2ccccc2n1C1CCN(CCCC(c2ccc(F)cc2)c2ccc(F)cc2)CC1 [PIMOZIDE],Compound NOT metabolized
3,COc1cc(C(=O)NCc2ccc(OCCN(C)C)cc2)cc(OC)c1OC [TRIMETHOBENZAMIDE],Compound NOT metabolized

# Assay: The drug is tested on Bacteroides fragilis strain: HMW610 for biotransformation. The drug concentrations were measured before and after a 12-h incubation by liquid-chromatography-coupled mass spectrometry (LC–MS)
# Details: 2 µM
row,SMILES,Bacterial Biotransformation
1,CCOc1ccccc1OCCN[C@H](C)Cc1ccc(OC)c(S(N)(=O)=O)c1.Cl [TAMSULOSIN HYDROCHLORIDE],Compound NOT metabolized
2,O=c1[nH]c2ccccc2n1C1CCN(CCCC(c2ccc(F)cc2)c2ccc(F)cc2)CC1 [PIMOZIDE],Compound NOT metabolized
3,COc1cc(C(=O)NCc2ccc(OCCN(C)C)cc2)cc(OC)c1OC [TRIMETHOBENZAMIDE],Compound NOT metabolized

# Assay: The drug is tested on Collinsella aerofaciens strain: ATCC25986 for biotransformation. The drug concentrations were measured before and after a 12-h incubation by liquid-chromatography-coupled mass spectrometry (LC–MS)
# Details: 2 µM
row,SMILES,Bacterial Biotransformation
1,CCOc1ccccc1OCCN[C@H](C)Cc1ccc(OC)c(S(N)(=O)=O)c1.Cl [TAMSULOSIN HYDROCHLORIDE],Compound NOT metabolized
2,O=c1[nH]c2ccccc2n1C1CCN(CCCC(c2ccc(F)cc2)c2ccc(F)cc2)CC1 [PIMOZIDE],Compound NOT metabolized
3,COc1cc(C(=O)NCc2ccc(OCCN(C)C)cc2)cc(OC)c1OC [TRIMETHOBENZAMIDE],Compound NOT metabolized

# Details: limosilactobacillus reuteri cf48-3a, 12 h, 2 µM
# Description: The drug is tested on Lactobacillus reuteri CF48-3A strain: BEI HM-102 for biotransformation. The drug concentrations were measured before and after a 12-h incubation by liquid-chromatography-coupled mass spectrometry (LC–MS)
row,SMILES,Bacterial Biotransformation
1,CCOc1ccccc1OCCN[C@H](C)Cc1ccc(OC)c(S(N)(=O)=O)c1.Cl [TAMSULOSIN HYDROCHLORIDE],Compound NOT metabolized
2,O=c1[nH]c2ccccc2n1C1CCN(CCCC(c2ccc(F)cc2)c2ccc(F)cc2)CC1 [PIMOZIDE],Compound NOT metabolized
3,COc1cc(C(=O)NCc2ccc(OCCN(C)C)cc2)cc(OC)c1OC [TRIMETHOBENZAMIDE],Compound NOT metabolized

# Assay: The drug is tested on Bacteroides dorei strain: DSM17855 for biotransformation. The drug concentrations were measured before and after a 12-h incubation by liquid-chromatography-coupled mass spectrometry (LC–MS)
# Details: phocaeicola dorei, 2 µM
row,SMILES,Bacterial Biotransformation
1,CCOc1ccccc1OCCN[C@H](C)Cc1ccc(OC)c(S(N)(=O)=O)c1.Cl [TAMSULOSIN HYDROCHLORIDE],Compound NOT metabolized
2,O=c1[nH]c2ccccc2n1C1CCN(CCCC(c2ccc(F)cc2)c2ccc(F)cc2)CC1 [PIMOZIDE],Compound NOT metabolized
3,COc1cc(C(=O)NCc2ccc(OCCN(C)C)cc2)cc(OC)c1OC [TRIMETHOBENZAMIDE],Compound NOT metabolized

# Assay: The drug is tested on Anaerococcus hydrogenalis strain: DSM7454 for biotransformation. The drug concentrations were measured before and after a 12-h incubation by liquid-chromatography-coupled mass spectrometry (LC–MS)
# Details: 2 µM
row,SMILES,Bacterial Biotransformation
1,CCOc1ccccc1OCCN[C@H](C)Cc1ccc(OC)c(S(N)(=O)=O)c1.Cl [TAMSULOSIN HYDROCHLORIDE],Compound NOT metabolized
2,O=c1[nH]c2ccccc2n1C1CCN(CCCC(c2ccc(F)cc2)c2ccc(F)cc2)CC1 [PIMOZIDE],Compound NOT metabolized
3,COc1cc(C(=O)NCc2ccc(OCCN(C)C)cc2)cc(OC)c1OC [TRIMETHOBENZAMIDE],Compound NOT metabolized

# Assay: The drug is tested on Bifidobacterium longum subsp. Infantis strain: CCUG52486 for biotransformation. The drug concentrations were measured before and after a 12-h incubation by liquid-chromatography-coupled mass spectrometry (LC–MS)
# Details: 2 µM
row,SMILES,Bacterial Biotransformation
1,CCOc1ccccc1OCCN[C@H](C)Cc1ccc(OC)c(S(N)(=O)=O)c1.Cl [TAMSULOSIN HYDROCHLORIDE],Compound NOT metabolized
2,O=c1[nH]c2ccccc2n1C1CCN(CCCC(c2ccc(F)cc2)c2ccc(F)cc2)CC1 [PIMOZIDE],Compound NOT metabolized
3,COc1cc(C(=O)NCc2ccc(OCCN(C)C)cc2)cc(OC)c1OC [TRIMETHOBENZAMIDE],Compound NOT metabolized

# Assay: The drug is tested on Ruminococcus gnavus strain: ATCC29149 for biotransformation. The drug concentrations were measured before and after a 12-h incubation by liquid-chromatography-coupled mass spectrometry (LC–MS)
# Details: mediterraneibacter gnavus, 2 µM
row,SMILES,Bacterial Biotransformation
1,CCOc1ccccc1OCCN[C@H](C)Cc1ccc(OC)c(S(N)(=O)=O)c1.Cl [TAMSULOSIN HYDROCHLORIDE],Compound NOT metabolized
2,O=c1[nH]c2ccccc2n1C1CCN(CCCC(c2ccc(F)cc2)c2ccc(F)cc2)CC1 [PIMOZIDE],Compound NOT metabolized
3,COc1cc(C(=O)NCc2ccc(OCCN(C)C)cc2)cc(OC)c1OC [TRIMETHOBENZAMIDE],Compound NOT metabolized

# Assay: The drug is tested on Bacteroides pectinophilus strain: ATCC43243 for biotransformation. The drug concentrations were measured before and after a 12-h incubation by liquid-chromatography-coupled mass spectrometry (LC–MS)
# Details: 2 µM
row,SMILES,Bacterial Biotransformation
1,CCOc1ccccc1OCCN[C@H](C)Cc1ccc(OC)c(S(N)(=O)=O)c1.Cl [TAMSULOSIN HYDROCHLORIDE],Compound NOT metabolized
2,O=c1[nH]c2ccccc2n1C1CCN(CCCC(c2ccc(F)cc2)c2ccc(F)cc2)CC1 [PIMOZIDE],Compound NOT metabolized
3,COc1cc(C(=O)NCc2ccc(OCCN(C)C)cc2)cc(OC)c1OC [TRIMETHOBENZAMIDE],Compound NOT metabolized

# Details: enterocloster bolteae, 12 h, 2 µM
# Description: The drug is tested on Clostridium bolteae strain: ATCCBAA-613 for biotransformation. The drug concentrations were measured before and after a 12-h incubation by liquid-chromatography-coupled mass spectrometry (LC–MS)
row,SMILES,Bacterial Biotransformation
1,CCOc1ccccc1OCCN[C@H](C)Cc1ccc(OC)c(S(N)(=O)=O)c1.Cl [TAMSULOSIN HYDROCHLORIDE],Compound NOT metabolized
2,O=c1[nH]c2ccccc2n1C1CCN(CCCC(c2ccc(F)cc2)c2ccc(F)cc2)CC1 [PIMOZIDE],Compound NOT metabolized
3,COc1cc(C(=O)NCc2ccc(OCCN(C)C)cc2)cc(OC)c1OC [TRIMETHOBENZAMIDE],Compound NOT metabolized

# Details: bacteroides eggerthii, 12 h, 2 µM
# Description: The drug is tested on Bacteroides eggerthii strain: DSM20697 for biotransformation. The drug concentrations were measured before and after a 12-h incubation by liquid-chromatography-coupled mass spectrometry (LC–MS)
row,SMILES,Bacterial Biotransformation
1,CCOc1ccccc1OCCN[C@H](C)Cc1ccc(OC)c(S(N)(=O)=O)c1.Cl [TAMSULOSIN HYDROCHLORIDE],Compound NOT metabolized
2,O=c1[nH]c2ccccc2n1C1CCN(CCCC(c2ccc(F)cc2)c2ccc(F)cc2)CC1 [PIMOZIDE],Compound NOT metabolized
3,COc1cc(C(=O)NCc2ccc(OCCN(C)C)cc2)cc(OC)c1OC [TRIMETHOBENZAMIDE],Compound NOT metabolized

# Assay: The drug is tested on Bacteroides coprophilus strain: DSM18228 for biotransformation. The drug concentrations were measured before and after a 12-h incubation by liquid-chromatography-coupled mass spectrometry (LC–MS)
# Details: 2 µM
row,SMILES,Bacterial Biotransformation
1,CCOc1ccccc1OCCN[C@H](C)Cc1ccc(OC)c(S(N)(=O)=O)c1.Cl [TAMSULOSIN HYDROCHLORIDE],Compound NOT metabolized
2,O=c1[nH]c2ccccc2n1C1CCN(CCCC(c2ccc(F)cc2)c2ccc(F)cc2)CC1 [PIMOZIDE],Compound NOT metabolized
3,COc1cc(C(=O)NCc2ccc(OCCN(C)C)cc2)cc(OC)c1OC [TRIMETHOBENZAMIDE],Compound NOT metabolized
